In patent US20240352010A1, “SUBSTITUTED 1,2,4-THIADIAZOLYL NICOTINAMIDES, SALTS OR N-OXIDES THEREOF AND THEIR USE AS HERBICIDALLY ACTIVE SUBSTANCES” (BayerAktiengesellschaft, priority 2021, published 2024):

How the values were obtained:
Type in all cases: in vivo
[1] = test system: Matricaria inodora (MATIN); test: Herbicidal pre-emergence action, MATIN
Excerpt: (§1) Seeds of mono- and dicotyledonous weed plants were sown in plastic pots (double sowings with one species of mono- and one species of dicotyledonous weed plants per pot), in sandy loam, and covered with soil. The compounds according to the invention, formulated in the form of wettable powders (WP) or as emulsifiable concentrates (EC), were applied to the surface of the covering soil as an aqueous suspension or as an emulsion, with the addition of 0.5% of an additive, at an application rate of 600 litres of water per hectare (converted). Following treatment, the pots were placed in a greenhouse and kept under optimum growth conditions for the test plants. The visual grading of the damage to the test plants is carried out after ca. 3 weeks in comparison to untreated controls (herbicidal effect in percent (%): 100% effect=plants have died, 0% effect=as control plants). Seeds of mono- and dicotyledonous weed plants were sown in plastic pots (double sowings with one species of mono- and one species of dicotyledonous weed plants per pot), in sandy loam, and covered with soil. The compounds according to the invention, formulated in the form of wettable powders (WP) or as emulsifiable concentrates (EC), were applied to the surface of the covering soil as an aqueous suspension or as an emulsion, with the addition of 0.5% of an additive, at an application rate of 600 litres of water per hectare (converted). Following treatment, the pots were placed in a greenhouse and kept under optimum growth conditions for the test plants. The visual grading of the damage to the test plants is carried out after ca. 3 weeks in comparison to untreated controls (herbicidal effect in percent (%): 100% effect=plants have died, 0% effect=as control plants).

[2] = test system: Veronica persica (VERPE); test: Herbicidal post-emergence action, VERPE
Excerpt: (§2) Seeds of mono- and dicotyledonous weed plants were sown in plastic pots (double sowings with one species of mono- and one species of dicotyledonous weed plants per pot), in sandy loam, covered with soil and grown under controlled growth conditions. 2 to 3 weeks after sowing, the test plants were sprayed in the single-leaf stage. The compounds according to the invention, formulated in the form of wettable powders (WP) or as emulsifiable concentrates (EC), were sprayed onto the green plant parts as an aqueous suspension or as an emulsion, with the addition of 0.5% of an additive, at an application rate of 600 litres of water per hectare (converted). The test plants were placed in the greenhouse for ca. 3 weeks under optimum growth conditions, and then the effect of the preparations is assessed visually in comparison with untreated controls (herbicidal effect in percent (%): 100% effect=plants have died, 0% effect=as control plants). […]

[3] = test system: Amaranthus retroflexus (AMARE); test: Herbicidal post-emergence action, AMARE
Excerpt: as §2

[4] = test system: Stellaria media (STEME); test: Herbicidal pre-emergence action, STEME
Excerpt: as §1

[5] = test system: Amaranthus retroflexus (AMARE); test: Herbicidal pre-emergence action, AMARE
Excerpt: as §1

[6] = test system: Kochia scoparia (KCHSC); test: Herbicidal post-emergence action, KCHSC; settings: 1280 g/ha, assessed visually after ca. 3 weeks vs untreated controls (Table B4)
Excerpt: as §2

[7] = test system: Stellaria media (STEME); test: Herbicidal post-emergence action, STEME
Excerpt: as §2

[8] = test system: Setaria viridis (SETVI); test: Herbicidal post-emergence action, SETVI; settings: 1280 g/ha, assessed visually after ca. 3 weeks vs untreated controls (Table B7)
Excerpt: as §2

[9] = test system: Setaria viridis (SETVI); test: Herbicidal pre-emergence action, SETVI
Excerpt: as §1

[10] = test system: Matricaria inodora (MATIN); test: Herbicidal post-emergence action, MATIN
Excerpt: as §2

[11] = test system: Poa annua (POAAN); test: Herbicidal pre-emergence action, POAAN; settings: 1280 g/ha, visual grading after ca. 3 weeks vs untreated controls (Table A7)
Excerpt: as §1

[12] = test system: Poa annua (POAAN); test: Herbicidal post-emergence action, POAAN
Excerpt: as §2

[13] = test system: Kochia scoparia (KCHSC); test: Herbicidal pre-emergence action, KCHSC; settings: 1280 g/ha, visual grading after ca. 3 weeks vs untreated controls (Table A4)
Excerpt: as §1

[14] = test system: Lolium rigidum (LOLRI); test: Herbicidal pre-emergence action, LOLRI; settings: 1280 g/ha, visual grading after ca. 3 weeks vs untreated controls (Table A5)
Excerpt: as §1

[15] = test system: Echinochloa crus-galli (ECHCG); test: Herbicidal post-emergence action, ECHCG; settings: 1280 g/ha, assessed visually after ca. 3 weeks vs untreated controls (Table B3)
Excerpt: as §2

[16] = 320 g/ha, visual grading after ca. 3 weeks vs untreated controls (Table C3)
[17] = 1280 g/ha, visual grading after ca. 3 weeks vs untreated controls (Table A6)
[18] = 1280 g/ha, assessed visually after ca. 3 weeks vs untreated controls (Table B10)
[19] = 1280 g/ha, assessed visually after ca. 3 weeks vs untreated controls (Table B11)
[20] = 320 g/ha, visual grading after ca. 3 weeks vs untreated controls (Table C6)
[21] = 1280 g/ha, visual grading after ca. 3 weeks vs untreated controls (Table A9)
[22] = 1280 g/ha, visual grading after ca. 3 weeks vs untreated controls (Table A11)
[23] = 1280 g/ha, assessed visually after ca. 3 weeks vs untreated controls (Table B9)
[24] = 320 g/ha, assessed visually after ca. 3 weeks vs untreated controls (Table D6)
[25] = 1280 g/ha, visual grading after ca. 3 weeks vs untreated controls (Table A8)
[26] = 1280 g/ha, assessed visually after ca. 3 weeks vs untreated controls (Table B6)
[27] = 320 g/ha, assessed visually after ca. 3 weeks vs untreated controls (Table D4)
[28] = 1280 g/ha, assessed visually after ca. 3 weeks vs untreated controls (Table B8)

Row | SMILES | herbicidal effect in percent, MATIN [1, 16] [%] | herbicidal effect in percent, MATIN [1, 17] [%] | herbicidal effect in percent, VERPE [2, 18] [%] | herbicidal effect in percent, AMARE [3, 19] [%] | herbicidal effect in percent, STEME [4, 20] [%] | herbicidal effect in percent, STEME [4, 21] [%] | herbicidal effect in percent, AMARE [5, 22] [%] | herbicidal effect in percent, KCHSC [6] [%] | herbicidal effect in percent, STEME [7, 23] [%] | herbicidal effect in percent, MATIN [10, 26] [%] | other results
1 | COc1nccc(C2CC2(F)F)c1C(=O)Nc1ncns1 (stereo not shown) [Example I-001, 4-(2,2-difluorocyclopropyl)-2-methoxy-N-(1,2,4-thiadiazol-5-yl)pyridine-3-carboxamide] | 90 | 90 | – | – | – | – | – | – | – | – | –
2 | O=C(Nc1ncns1)c1c(C2CC2(F)F)ccnc1F (stereo not shown) [Example I-002, 4-(2,2-difluorocyclopropyl)-2-fluoro-N-(1,2,4-thiadiazol-5-yl)pyridine-3-carboxamide] | 90 | 100 | 90 | 90 | 90 | 90 | 100 | 90 | 90 | – | –
3 | CC1CC1c1ccnc(Cl)c1C(=O)Nc1ncns1 (stereo not shown) [Example I-004] | – | 90 | 90 | 100 | – | 90 | 100 | 90 | 100 | 100 | herbicidal effect in percent, SETVI [8]: 100%; herbicidal effect in percent, AMARE [3, 24]: 100%; herbicidal effect in percent, SETVI [9, 25]: 90%; herbicidal effect in percent, STEME [7, 27]: 90%
4 | COc1nccc(C2CC2)c1C(=O)Nc1ncns1 [Example I-007] | – | – | – | – | 90 | 90 | 100 | – | – | – | herbicidal effect in percent, POAAN [11]: 90%
5 | O=C(Nc1ncns1)c1cnccc1C1CC1 [Example I-008] | – | – | 90 | 100 | 90 | 90 | 100 | 90 | 100 | 100 | herbicidal effect in percent, POAAN [11]: 90%; herbicidal effect in percent, POAAN [12, 28]: 90%; herbicidal effect in percent, AMARE [3, 24]: 90%; herbicidal effect in percent, AMARE ([5]; 320 g/ha, visual grading after ca. 3 weeks vs untreated controls (Table C8)): 90%; herbicidal effect in percent, KCHSC [13]: 90%
6 | C=C(C)c1ccnc(Cl)c1C(=O)Nc1ncns1 [Example I-009] | – | 100 | – | 90 | – | 90 | – | – | 90 | – | herbicidal effect in percent, SETVI ([9]; 320 g/ha, visual grading after ca. 3 weeks vs untreated controls (Table C5)): 90%; herbicidal effect in percent, SETVI [9, 25]: 100%
7 | O=C(Nc1nc(Br)ns1)c1c(C2CC2)ccnc1Cl [Example I-010] | 90 | 100 | 90 | 90 | – | 100 | 90 | – | 90 | 90 | herbicidal effect in percent, LOLRI [14]: 90%; herbicidal effect in percent, ECHCG [15]: 90%; herbicidal effect in percent, POAAN ([12]; 320 g/ha, assessed visually after ca. 3 weeks vs untreated controls (Table D3)): 90%; herbicidal effect in percent, POAAN [12, 28]: 90%; herbicidal effect in percent, VERPE ([2]; 320 g/ha, assessed visually after ca. 3 weeks vs untreated controls (Table D5)): 90%; herbicidal effect in percent, MATIN ([10]; 320 g/ha, assessed visually after ca. 3 weeks vs untreated controls (Table D2)): 90%; herbicidal effect in percent, KCHSC [13]: 90%; herbicidal effect in percent, STEME [7, 27]: 90%
8 | Cc1nsc(NC(=O)c2c(C3CC3)ccnc2Cl)n1 [Example I-011] | 100 | 100 | 90 | – | – | 90 | – | – | 90 | – | –
